Measured values reported in US20250009763A1, “METHODS FOR EXTENDING LIFESPAN AND/OR DELAYING AGING” (priority 2023, published 2025).

Experiments:
aged C57BL/6J mice [1] = experiment: Survival, body weight and food intake of aged mice
HUVECs = experiment: Population doubling (PD) assay; type: cell-based, human; conditions: 1 or 2 μM; FIG. 3A
Experimental: (§1) For the population doubling (PD) assay, HUVECs (1×10^5 cells/3.5 cm dish) were propagated in the presence of DMSO (i.e., control) or PN6 (1 or 2 μM) until senescence (Day 41), and the cell numbers in each passage were recorded to generate a growth curve that represented the cumulative population doubling. The population doubling levels (PDLs) of HUVECs were calculated in every culture to indicate the proliferation capacity of HUVECs under the respective conditions. The population doublings (PDs) were estimated using the equation: PDL=3.32 (log (total viable cells at harvest/total viable cells at seeding). Also, HUVECs at passages PDL4 and PDL11 cultured in 0 μM (i.e., DMSO alone), 1 μM, or 2 μM PN6 were harvested for further analyses (e.g., western blot and SA-β-gal staining).

SIRT1 = molecular target: T1, SIRT1 (Homo sapiens, UniProt Q96EB6); experiment: Acetylation of p53 (K382) via UV irradiation, western blot, U2OS cells; type: cell-based; conditions: 10-100 μM PN6, FIGS. 2C-2D
T1 construct: endogenous in cells; host or cells: U2OS cells; IMR90 cells
T1 sequence (Q96EB6 1-747): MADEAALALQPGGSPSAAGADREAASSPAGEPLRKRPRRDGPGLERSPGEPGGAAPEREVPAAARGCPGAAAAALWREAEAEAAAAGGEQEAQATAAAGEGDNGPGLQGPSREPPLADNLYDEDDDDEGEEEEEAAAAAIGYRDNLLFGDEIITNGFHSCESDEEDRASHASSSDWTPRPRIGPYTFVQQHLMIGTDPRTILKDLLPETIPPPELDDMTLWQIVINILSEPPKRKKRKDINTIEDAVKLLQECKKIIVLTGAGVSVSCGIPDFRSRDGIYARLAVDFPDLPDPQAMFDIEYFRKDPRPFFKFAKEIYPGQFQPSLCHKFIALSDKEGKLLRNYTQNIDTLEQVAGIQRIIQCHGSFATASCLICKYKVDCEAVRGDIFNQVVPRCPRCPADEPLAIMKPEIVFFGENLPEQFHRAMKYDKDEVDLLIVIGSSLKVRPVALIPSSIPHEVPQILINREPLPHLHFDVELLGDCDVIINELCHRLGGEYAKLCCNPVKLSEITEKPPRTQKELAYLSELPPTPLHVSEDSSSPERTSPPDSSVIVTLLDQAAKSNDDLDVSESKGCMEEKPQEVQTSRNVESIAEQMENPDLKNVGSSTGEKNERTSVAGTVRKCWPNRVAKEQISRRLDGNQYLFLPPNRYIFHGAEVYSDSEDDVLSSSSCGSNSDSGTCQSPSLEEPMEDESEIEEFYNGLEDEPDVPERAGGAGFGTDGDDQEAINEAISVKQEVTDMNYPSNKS
Experimental: U2OS cells (1.2×10^5 cells/dish) or IMR90 cells (3.0×10^5 cells/dish) were seeded into a 3.5 cm culture dish, and incubated with 0, 10, 25, 50, or 100 μM PN6 for 16 hours, before subjected to UVB irradiation at 7.5 mJ/m^2 (for U2OS cells) or 5.0 mJ/m^2 (for IMR90 cells) for 4 hours.
Cells were harvested with a 1.25× Laemmli buffer and lysed in RIPA lysis buffer containing 1% of Triton X-100 and a protease inhibitor cocktail, and total protein concentrations were measured with a protein assay kit. Proteins in the samples of the lysates with the same amounts of total protein were separated by sodium dodecyl sulfate polyacrylamide gel electrophoresis (SDS-PAGE) (10% polyacrylamide gels) and analyzed by immunoblotting. Primary antibodies against p53ac (K382) (1:1,000), p21 (1:1,000), and 3-actin (1:200,000) were applied to detect the corresponding proteins. Horseradish peroxidase (HRP)-conjugated secondary antibodies against mouse IgG were then incubated with the membranes, and proteins were visualized by chemiluminescence according to the manufacturer's instructions. Protein quantification was performed by software.

[2] = system: sir2Δfob1Δ mutant strain of yeast; experiment: RLS of sir2Δfob1Δ double deletion strain; type: cell-based, Saccharomyces cerevisiae; conditions: 25 μM; FIG. 2A
Experimental: The micromanipulation of the yeast cells was carried out as follows. Prior to analysis, yeast strains BY4741 (WT), BY4741-fob1Δ (fob1Δ), or BY4741-sir2Δfob1Δ (sir2Δfob1Δ) were plated onto fresh solid YEPD medium and grown at 30° C. for two days. Then, individual colonies were picked and grown in solid YEPD media containing: (1) dimethyl sulfoxide (DMSO), (2) 10, 25, or 50 μM PN6, or (3) 25 μM β-sitosterol at 30° C. overnight, and a small number of yeast cells were then plated onto a fresh YEPD plate for lifespan analysis. After overnight growth on the lifespan plates, the cells were arrayed on the plate using a micromanipulator and allowed to grow for approximately 3 hours. Virgin daughter cells were selected and subjected to lifespan analysis. In the lifespan experiments, the plates were incubated at 30° C. during the day and stored at 4° C. overnight. Each experiment consisted of more than 50 mother cells and was independently repeated three times.

p21 = p21 expression in HUVECs, western blot; type: cell-based, human; conditions: HUVECs at PDL11, 1 or 2 μM; FIG. 3B
Experimental: as §1
Cells were harvested with a 1.25× Laemmli buffer and lysed in RIPA lysis buffer containing 1% of Triton X-100 and a protease inhibitor cocktail, and total protein concentrations were measured with a protein assay kit. Proteins in the samples of the lysates with the same amounts of total protein were separated by sodium dodecyl sulfate polyacrylamide gel electrophoresis (SDS-PAGE) (10% polyacrylamide gels) and analyzed by immunoblotting. […] Protein quantification was performed by software.

aged C57BL/6J mice [3] = experiment: Rearing behavior; type: in vivo, mouse; conditions: long-term (111 weeks of age), old-aged mice; FIG. 4D
Experimental: The rearing behavior of the male C57BL/6J mice fed a standard rodent chow with or without 50 mg/kg PN6 for 22 weeks (at 72 weeks of age; mid-term) or for 61 weeks (at 111 weeks of age; long-term) was analyzed using the OxyletPro System, in which the mice were housed individually in metabolic cages that were equipped with infrared light beam frames surrounding them. Mid-term: SD, n=16; PN6, n=8; long-term: SD, n=12; PN6, n=8.

## CCC(CC[C@@H](C)C1CCC2C3CC(=O)[C@H]4C[C@@H](O)CC[C@]4(C)C3CC[C@@]21C)C(C)C (stereo in doubt) [PN6, (24S)-3β-hydroxy-5α-stigmastan-6-one]
Aged C57BL/6J mice [1]; chow containing 50 mg/kg PN6, FIG. 4B
  trajectories of body weight: remained in a steady state
Aged C57BL/6J mice [1]; chow containing 50 mg/kg PN6, versus SD group, FIG. 4A
  lifespan of the aged mice: significantly increased the lifespan
Aged C57BL/6J mice [1]; versus SD group, entire course of the experiment, FIG. 4C
  food intake: did not diverge
HUVECs
  population doubling level (PDL) of HUVECs: increase the PDL
SIRT1
  degree of acetylation of P53 at K382: decreased in a dose-dependent manner
[2]
  extension of lifespan of sir2Δfob1Δ mutant strain: unable to extend the lifespan
p21
  p21 expression level: decreased dose-dependently
Aged C57BL/6J mice [3]
  rearing behavior (exploratory activity): increase the exploratory activity
